In experiment [1] the test system is sialidase (including NanH from T. forsythia). Put plainly: Sialidase assay with methylumbelliferyl-N-acetylneuraminic acid. It is filed as biochemical. The procedure:
Sialidase assays used 2.8 mM and 0.28 mM inhibitor (or water without inhibitor) and 2.5 nM sialidase (including NanH from T. forsythia) incubated in the presence of 0.1 mM methylumbelliferyl-N-acetyineuraminic acid, pH 7.2 in 20 mM sodium phosphate buffer. Reactions were stopped at 30 seconds and 60 seconds via addition of pH 10.5 60 mM sodium carbonate buffer. Release of fluorogenic methylumbelliferone (MU) was quantified by measuring fluorescence emission at 450 nm, excitation 350 nm. Percentage sialidase activity was expressed as the change in fluorescence between 30 seconds and 60 seconds compared to that of a reaction without inhibitor. Reactions were carried out in triplicate.

The next experiment deals with phosphorylated p38. Put plainly: Western blot of phosphorylated p38 in LPS-stimulated THP-1 cells. It counts as cell-based, human. The conditions noted are these: vs LPS = 1.00. The procedure: THP-1 cells were cultured in RPMI media supplemented with mercaptoethanol & glutamine to get 80% confluence in culture flasks, then they were aspirated and centrifuged at 1500 rpm for 5 mins. The cell pellet was then resuspended in 1 ml of RPMI complete media and counted conventionally using a hemocytometer. The cells (5×106) were incubated with PMA (10 ng/ml) in separate dishes to differentiate THP-1 cells. To determine the protein expression p38 & p42/44, THP-1 cells were pre-treated for 1 hr with idoBR1-100 μg/ml & 50 μg/ml and cucumber extract (Q-actin batch no. B17CF001)—200 μg/ml & 100 μg/ml, followed by 2 hr LPS (1 μg/ml) stimulation. Post incubation, the cells were harvested and whole protein was isolated.
Cell pellets were lysed, and the protein concentration was determined using the Bio-Rad protein determination assay (Bio-Rad). Total cell proteins were subjected to 8% polyacrylamide SDS gel electrophoresis followed by transfer onto polyvinylidene difluoride membranes (Thermoscientific). The membranes were probed with either mouse anti-phospho-p38 mAb (Thermoscientific) or mouse anti-phospho-p42/44 mAb (Thermoscientific), followed by horseradish peroxidase-conjugated goat anti-mouse polyclonal antibodies (Thermoscientific). All immunoblots were visualized by ECL (Amersham Biosciences).

The test system of experiment [2] is murine microglial cell line BV-2. Put plainly: Nitrite production by LPS-stimulated BV-2 microglial cells. It counts as cell-based. The conditions noted are these: 24 hours. The procedure:
idoBR1 was used in cell cultures of murine microglial cell line BV-2 at 0, 20, 40 and 80 μg/ml plus and minus sub-optimal LPS. Production of TNF-α and nitrite was measured after 24 hours.

For a further experiment, the system named is IL-10. Put plainly: IL-10 ELISA in LPS stimulated THP-1 cells. It counts as cell-based, human. The settings on record: for Fold increase in IL-10 levels: vs control = 1.00. The procedure:
The cells in an 80% confluence culture flask were aspirated and centrifuged at 1500 rpm for 5 mins. The cell pellet was then resuspended in 1 ml of RPMI complete media and 1×10^5 cells/well seeded to each well of the 96 well microtiter plate. After 24 hrs incubation, PMA (10 ng/ml) was added to the 96 well plate to differentiate THP-1 cells to determine the TNF-α production, THP-1 cells were pretreated for 1 hr with idoBR1 or cucumber extract-Q-actin (batch no. […] Post incubation, the cell supernatant from each of the wells was aspirated into sterile micro centrifuge tubes and centrifuged at 1000 rpm for 2-3 mins. The cell supernatant was then used for evaluation of presence of cytokines using ELISA.
ELISA plates coated with antibodies for IL-12, IL-1β, or IL-10 (R&D Systems, USA) were used for the following study. To each well 50 μL of Assay Diluent RD1F was added after mixing well. 200 μL of sample (idoBR1 or extract), or control per well was added and covered with an adhesive strip. Following incubation for 2 hours at room temperature each well was aspirated and washed 4 times with Wash Buffer (400 μl). After the last wash, any remaining Wash Buffer was removed by aspirating or decanting. The plates were inverted and blotted against clean paper towels. To each well 200 μl of appropriate human conjugate was added and these then covered with a new adhesive strip and incubated for 1 hour at room temperature. The aspiration/wash was then repeated. 200 μL of Substrate Solution was then added to each well and further incubated for 20 minutes at room temperature protected from light. 50 μL of Stop Solution was added to each well. The colour in the wells was changed from blue to yellow. OD was measured within 30 minutes at 450 nm.

A further experiment relates to CD44-HA binding. The experiment in a line: CD44-HA (hyaluronic acid) binding activity in THP-1 cells by ELISA. The settings on record: for CD44-HA: LPS-stimulated THP-1; for % reduction in CD44-HA levels: vs LPS control. It counts as cell-based, human. The procedure: The THP-1 cells were cultured in RPMI media supplemented with mercaptoethanol & glutamine to get 80% confluence in the culture flask, then aspirated and centrifuged at 1500 rpm for 5 mins. The cell pellet was then resuspended in 1 ml of RPMI complete media and counted conventionally using a hemocytometer. The cells (5×106) were incubated with Phorbol 12-myristate 13-acetate (PMA) (10 ng/ml) in separate dishes to cause differentiation of the THP-1 cells. To determine the CD44-HA binding activity, THP-1 cells were pretreated for 1 hr with idoBR1 or cucumber extract-Q-actin (batch no. B17CF001) at the concentrations 100 μg/ml to 12.5 μg/ml and 200 μg/ml to 25 μg/ml respectively followed by 24 hr LPS (1 μg/ml) stimulation. Post incubation, the cell lysates were taken for further analysis.
Anti-CD44 monoclonal antibody (Invitrogen, 2 μg) was coated to each well in 96-well plates in 50 mM carbonate/bicarbonate buffer (pH 9.6) and incubated overnight at 4° C. The unbound antibodies were removed using PBS with 0.05% Tween 20 (PBS-T wash solution). The wells were blocked using 1% BSA and incubated for 1 hr at 37° C. The wells were washed thrice thoroughly using PBS-T wash solution by adding 200 μl into wells. 50 μl cell lysates were added to the wells and incubated for 1 hr at 37° C. The wells were then washed thrice by adding 200 μl of PBS-T by soaking the wells for 30 secs before each wash. Biotinylated-Hyaluronic acid (HA) antibody followed by Streptavidin-HRP was added to form an immune complex and incubated for 60 mins at 37° C. The solution was aspirated and the wells washed thrice with 200 μl wash solution by soaking the wells for 30 secs. 50 μl of both Chromogen A and Chromogen B was added to each well. The plate was incubated for 15 mins away from light at 37° C. The reaction was stopped by adding 50 μl Stop Solution and the absorbance was read at 450 nm.

Each structure is given as a SMILES string. Marks after values point to notes of the source that are not given here.

`O=C(O)[C@@H]1NC[C@H](O)[C@@H](O)[C@@H]1O` [idoBR1, (2R,3R,4R,5S)-3,4,5-trihydroxypiperidine-2-carboxylic acid]: the “inhibition of the sialidase” value in experiment [1] (0.28 mM inhibitor) was determined as 42%; in experiment [1] (2.8 mM inhibitor), 36%. In addition, the “Relative expression of p38” value stood at 0.88 in the experiment with phosphorylated p38 (50 μg/ml) and 0.80 with phosphorylated p38 (100 μg/ml). Besides, the values for the Nitrite production in experiment [2] (20 μg/ml + LPS), in experiment [2] (40 μg/ml + LPS) and in experiment [2] (80 μg/ml + LPS) were 11* μM, 9** μM and 8** μM, respectively. The IL-10 with IL-10 (12.5 μg/mL) came out at 19.02 pg/mL; in the experiment with IL-10 (25 μg/mL), 29.34 pg/mL; in the experiment with IL-10 (50 μg/mL), 37.22 pg/mL; in the experiment on IL-10 (100 μg/mL), 43.08 pg/mL. The “Fold increase in IL-10 levels” value with IL-10 (12.5 μg/mL) was 1.34 fold; in the experiment on IL-10 (25 μg/mL) it was 2.07 fold; in the experiment with IL-10 (50 μg/mL), 2.63 fold; in the experiment on IL-10 (100 μg/mL), 3.04 fold. The CD44-HA in the experiment on CD44-HA binding (12.5 μg/mL) was 101.48 ng/mL; with CD44-HA binding (25 μg/mL), 94.93 ng/mL; with CD44-HA binding (50 μg/mL), 88.43 ng/mL; with CD44-HA binding (100 μg/mL) it was 81.04 ng/mL. The “% reduction in CD44-HA levels” value worked out at 8.12% with CD44-HA binding (12.5 μg/mL), 14.05% in the experiment with CD44-HA binding (25 μg/mL), 19.93% in the experiment on CD44-HA binding (50 μg/mL) and 26.62% with CD44-HA binding (100 μg/mL).

The values are drawn from US12558348B2, “Bioactive phytochemicals” (Phytoquest Limited, priority 2019, dated 2026).
